Measurements: paper PMC12514245, “Impaired migration and lung invasion of human melanoma by a novel small molecule targeting the transmembrane domain of death receptor p75^NTR” (EMBO Molecular Medicine, 2025)
“And” between values parts separate entries of the source, which are not always exact repeats. Identical values can stand only once. “Also recorded” adds a separate entry of the source.

Tests used:
[1] = system: A875 shp75 knock-down cells; experiment: Cleaved PARP western blot (apoptosis), A875 shp75; format: cell-based, human
Description: One of the main biological readouts of p75^NTR activity in response to neurotrophins is the induction of caspase-mediated apoptotic cell death (Underwood and Coulson, [2008]; Friedman, [2010]; Ibáñez and Simi, [2012]).
COS7, A875 and WM115 cell lines were cultured under standard conditions in DMEM supplemented with 10% fetal calf serum, 100 units/ml penicillin, […] streptomycin, and 2.5 mM glutamine. All cells were authenticated and tested for mycoplasma contamination. A875-NT (control) and A875 shp75 (knockdown) cell lines were described previously (Goh et al, [2018]).

[2] = target: TMD of TNF receptor 2 (TNFR2) (Homo sapiens, UniProt P20333); experiment: 2D NMR chemical shift perturbation, TNFR2 TMD in bicelles; format: binding; conditions: 4 molar excess compound
Sequence of TMD of TNF receptor 2 (TNFR2) (P20333 258-290 limits assumed): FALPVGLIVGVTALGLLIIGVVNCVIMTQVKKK

[3] = system: A875-NT melanoma xenograft; experiment: Melanoma lung invasion assay, A875-NT, delayed treatment 3 weeks after cell injection; format: in vivo, SCID mice
Description: Finally, we investigated whether delayed administration of Np75-4A22 was able to affect engraftment and growth of metastatic tumors in the lung. To this end, drug treatment (orally at 200 mg/kg) was initiated 3 weeks after intravenous injection of A875-NT or A875-shp75 cells in female SCID mice and continued for additionally 4 weekly cycles (5 days on/2 days off) as above (Fig. 8E). Metastatic spread to the lungs was monitored weekly by bioluminescent imaging of luciferase-expressing melanoma cells. […] We conclude that Np75-4A22 can be efficacious at reducing the spread and seeding of melanoma cells in the lung when administered either before or after cell implantation.
Eight-week-old female SCID mice (Charles River Laboratories, Shrewsbury, MA, USA) were housed in groups of three to five and maintained on a 12-h light/dark schedule with a temperature of 22 °C ± 1 °C and a relative humidity of 50% ± 5%. Food and water were available ad libitum. This research study was reviewed and approved by the University of Calgary Animal Care Committee (AC22-0054) and McGill University (AUP-JGH-8269) and adheres to established ethical principles and guidelines. A875-GFPLuc (A875-NT) or A875-GFPLuc shp75 (A875-shp75) cells harvested using Puck’s EDTA were resuspended in PBS and injected intravenously into SCID mice (5 × 10^5 cells/200 μl per mouse). Np75-4A22 was dissolved in 0.5% sodium carboxymethyl cellulose (NaCMC) in reverse osmosis H2O and administered by oral gavage at 200 mg/kg/day starting one day prior to intravenous (tail vein) injection of tumor cells and continued for 3 1-week cycles (cycle: 5 days on drug, 2 days off drug). Tumor spread to the lung was monitored weekly by luciferase activity using the Xenogen IVIS-200 Optical in vivo luciferase imaging system as described previously (Lun et al, [2016]) and by immunohistochemistry (IHC) at designated time points. IHC was performed after formalin fixation, paraffin embedding and sectioning of the lungs, using a human-specific mouse polyclonal nucleolin antibody (1:500 dilution) and detected using Dako liquid DAB+ Substrate Chromogen System (Dako: k3468, California, USA) followed by a hematoxylin counterstain (Sigma, Oakville, ON, Canada). Sections were mounted and imaged on an Olympus phase contrast microscope (Olympus Life Science, Tokyo, Japan). For immunofluorescence, sections were stained with anti-human nucleolin and anti-human p75NTR antibodies (1:1000 dilution), subsequently detected with 1:200 dilutions of Alexa Fluor™ 488 Goat anti-Mouse IgG (H + L) Highly Cross-Adsorbed Secondary Antibody and Alexa Fluor™ 568 Goat anti-Rabbit IgG (H + L) Cross-Adsorbed Secondary Antibody. Sections were further stained with DAPI to detect all nuclei. Between each treatment, TBS Automation Wash Buffer (Biocare Medical TWB945M) was employed. Images were taken with LSM800 confocal microscope and ZEN system.

Row | SMILES | apoptosis (cleavage of PARP) after p75NTR knock-down [1] | chemical shift perturbations, TNFR2 TMD [2] | Average Photons/second/week, wk2 ([3]; A875-NT, group average, wk2) | Average Photons/second/week, wk3 ([3]; A875-NT, group average, wk3) | Average Photons/second/week, wk4 ([3]; A875-NT, group average, wk4) | Average Photons/second/week, wk5 ([3]; A875-NT, group average, wk5) | Average Photons/second/week, wk6 ([3]; A875-NT, group average, wk6) | Average Photons/second/week, wk7 ([3]; A875-NT, group average, wk7) | Photons/second/ mouse/week, wk2 ([3]; A875-NT, individual mouse, wk2) | Photons/second/ mouse/week, wk3 ([3]; A875-NT, individual mouse, wk3) | Photons/second/ mouse/week, wk4 ([3]; A875-NT, individual mouse, wk4) | Photons/second/ mouse/week, wk5 ([3]; A875-NT, individual mouse, wk5) | Photons/second/ mouse/week, wk6 ([3]; A875-NT, individual mouse, wk6) | Photons/second/ mouse/week, wk7 ([3]; A875-NT, individual mouse, wk7) | lung tumors (bioluminescent imaging), delayed treatment ([3]; oral 200 mg/kg, started 3 weeks after cell injection, 4 weekly cycles)
1 | Oc1ccc(-c2cncc(Nc3ccc(Br)c(Cl)c3)n2)cc1 [Div17E5] | significantly reduced the pro-apoptotic effects | – | – | – | – | – | – | – | – | – | – | – | – | – | –
2 | Cc1cccc(-c2cncc(Nc3ccc(Br)c(Cl)c3Cl)n2)c1C [Np75-4A22] | – | essentially no interaction; also recorded: no or minimal chemical shift perturbations | 7.77E+04 Photons/second | 1.89E+05 Photons/second | 1.70E+05 Photons/second | 3.04E+05 Photons/second | 8.45E+05 Photons/second | 3.17E+06 Photons/second | 7.00E+04 Photons/second and 7.88E+04 Photons/second and 6.89E+04 Photons/second and 1.01E+05 Photons/second and 8.02E+04 Photons/second and 7.86E+04 Photons/second and 8.67E+04 Photons/second and 5.74E+04 Photons/second | 1.59E+05 Photons/second and 1.50E+05 Photons/second and 1.97E+05 Photons/second and 3.40E+05 Photons/second and 2.35E+05 Photons/second and 1.26E+05 Photons/second and 1.46E+05 Photons/second | 1.44E+05 Photons/second and 1.39E+05 Photons/second and 1.26E+05 Photons/second and 1.15E+05 Photons/second and 2.32E+05 Photons/second and 2.12E+05 Photons/second and 2.11E+05 Photons/second and 1.82E+05 Photons/second | 2.30E+05 Photons/second and 1.68E+05 Photons/second and 2.24E+05 Photons/second and 7.71E+05 Photons/second and 3.62E+05 Photons/second and 2.51E+05 Photons/second and 2.06E+05 Photons/second and 2.23E+05 Photons/second | 1.70E+05 Photons/second and 6.38E+04 Photons/second and 3.70E+05 Photons/second and 3.16E+06 Photons/second and 2.58E+06 Photons/second and 1.54E+05 Photons/second and 1.46E+05 Photons/second and 1.19E+05 Photons/second | 5.60E+05 Photons/second and 5.09E+05 Photons/second and 3.70E+06 Photons/second and 1.34E+07 Photons/second and 6.38E+06 Photons/second and 2.75E+05 Photons/second and 2.70E+05 Photons/second and 2.40E+05 Photons/second | reducing A875-NT lung tumors to very low levels
